# Reference: patent US12616672B2, “Methods for assessing risk of cardiovascular disease and methods and compounds for use in treating or preventing cardiovascular disease” (Queen Mary University of London, priority 2017, dated 2026)
# Several values for one entry are separate records, joined by “and”; a condition that tells them apart may be missing. Equal entries are not always repeated.
# Tests used:
# [1] = tested on: Apo E^−/− mice; experiment: Apo E−/− mice given RvD5n-3 DPA: lipid mediator profiling of descending aorta; type: in vivo, mouse
# Method: Plasma was obtained from peripheral blood of healthy volunteers and patients following centrifugation at 1500×g for 10 min at room temperature. Descending aortas were weighed, placed in ice-cold methanol and homogenized using a glass dounce.
# All samples for LC-MS-MS-based profiling were extracted using solid-phase extraction columns as described in Dalli et al. 2013 and Rathod et al. 2017, the contents of which are incorporated herein by reference.
# Prior to sample extraction, deuterated internal standards, representing each region in the chromatographic analysis (500 pg each) were added to facilitate quantification in 4V of cold methanol.
# Samples were kept at −20° C. for a minimum of 45 min to allow protein precipitation.
# Supernatants were subjected to solid phase extraction, methyl formate fraction collected, brought to dryness and suspended in phase (methanol/water, 1:1, vol/vol) for injection on a Shimadzu LC-20AD HPLC and a Shimadzu SIL-20AC autoinjector, paired with a triple quadrupole mass spectrometer with or without a linear ion trap.
# An Agilent Poroshell 120 EC-C18 column (100 mm×4.6 mm×2.7 μm) was kept at 50° C. and mediators eluted using a mobile phase consisting of methanol-water-acetic acid of 20:80:0.01 (vol/vol/vol) that was ramped to 50:50:0.01 (vol/vol/vol) over 0.5 min and then to 80:20:0.01 (vol/vol/vol) from 2 min to 11 min, maintained till 14.5 min and then rapidly ramped to 98:2:0.01 (vol/vol/vol) for the next 0.1 min. This was subsequently maintained at 98:2:0.01 (vol/vol/vol) for 5.4 min, and the flow rate was maintained at 0.5 ml/min. Mass spectrometer was operated using a multiple reaction monitoring method as in Walker M E et al. 13-Series resolvins mediate the leukocyte-platelet actions of atorvastatin and pravastatin in inflammatory arthritis. FASEB J. 2017 August; 31(8):3636-3648, the contents of which are incorporated herein by reference.
# Each LM was identified using established criteria including matching retention time to synthetic and authentic materials and at least six diagnostic ions (Walker M E et al. 2017. ibid.)
# Calibration curves were obtained for each using synthetic compound mixtures at 0.78, 1.56, 3.12, 6.25, 12.5, 25, 50, 100, and 200 pg that gave linear calibration curves with an r^2 values of 0.98-0.99.
# Mice (male and female) were fed a western diet for 6 weeks from 4 weeks of age and kept of a 12 h light dark cycle. At 8 weeks of age, mice were given RvD5n-3 DPA (100 ng/mouse; i.v.) or vehicle on alternate days for a 2-week period. Mice were culled, aortic arches were collected and stained using oil-red O as in Khambata R S et al. Anti-inflammatory actions of inorganic nitrate stabilize the atherosclerotic plaque. Proc Natt Acad Sci USA. 2017; 114(4):E550-E559, the contents of which are incorporated herein by reference. Staining intensity was determined using image processing software and expressed as relative units per mm^2. The descending aorta was collected, placed in ice-cold methanol and lipid mediators identified and quantified as described above.
# [2] = tested on: peripheral blood leukocytes and platelets from CVD patients; experiment: CVD patient whole blood incubated with RvD2n-3 DPA or RvD5n-3 DPA then PAF, flow cytometry; type: cell-based, human
# [3] = 100 ng/mouse i.v., alternate days, 2 weeks, vs vehicle
# [4] = Apo E−/− mice, western diet, RvD5n-3 DPA 100 ng/mouse i.v. alternate days 2 weeks, descending aorta, mean, n = 4
# [5] = ApoE−/− mice, WD 6 weeks, 100 ng/mouse i.v. alternative days, descending aorta, mean ± s.e.m., n = 4
# [6] = ApoE−/− mice, WD 6 weeks, 100 ng/mouse i.v. alternative days, descending aorta, n = 4
smiles,measurement,setting,value
"CC/C=C\C[C@H](O)/C=C/C=C\C/C=C\C=C\[C@@H](O)CCCCCC(=O)O [RvD5n-3 DPA, 7,17-trihydroxy-8E,10,13,15E,19Z-docosapentaenoic acid]",aortic 15-epi-LXA4,[1]; [3],significant upregulation
same,aortic MaR1,[1]; [3],significant upregulation
same,aortic prostanoids,[1]; [3],significant reductions
same,reduction of aortic TxB2 concentrations,[1]; [3],~35% and > 35%
same,PGD2 concentration in aortic tissue,[1]; [4],15.0 pg/10 mg tissue
same,PGE2 concentration in aortic tissue,[1]; [4],16.2 pg/10 mg tissue
same,PGF2a concentration in aortic tissue,[1]; [4],9.1 pg/10 mg tissue
same,TxB2 concentration in aortic tissue,"[1]; Apo E−/− mice, western diet, RvD5n-3 DPA 100 ng/mouse i.v. alternate days 2 weeks, descending aorta, mean, n = 4, p < 0.05 vs Vehicle",30.7 pg/10 mg tissue
same,"4,14-diHDHA in aorta",[1]; [5],4.9 ± 2.0 pg/10 mg aorta
same,"5S,12S-diHETE in aorta",[1]; [5],0.6 ± 0.2 pg/10 mg aorta
same,"5S,15S-diHETE in aorta",[1]; [5],51.9 ± 15.3 pg/10 mg aorta
same,"7S,14S-diHDHA in aorta",[1]; [5],1.8 ± 0.3 pg/10 mg aorta
same,"10S,17S-diHDHA in aorta",[1]; [5],66.0 ± 35.4 pg/10 mg aorta
same,15-epi-LXA4 in aorta,[1]; [5],9.6 ± 1.9 pg/10 mg aorta
same,15-epi-LXB4 in aorta,[1]; [5],1.4 ± 0.5 pg/10 mg aorta
same,17R-PD1 in aorta,[1]; [5],0.3 ± 0.2 pg/10 mg aorta
same,17R-RvD1 in aorta,[1]; [5],1.6 ± 0.9 pg/10 mg aorta
same,17R-RvD3 in aorta,[1]; [5],1.3 ± 0.3 pg/10 mg aorta
same,22-OH-PD1 in aorta,[1]; [5],6.0 ± 1.0 pg/10 mg aorta
same,LTB4 in aorta,[1]; [5],1.7 ± 0.3 pg/10 mg aorta
same,LXA4 in aorta,[1]; [5],0.3 ± 0.0 pg/10 mg aorta
same,LXB4 in aorta,[1]; [5],0.6 ± 0.4 pg/10 mg aorta
same,MaR1 in aorta,[1]; [5],35.4 ± 22.7 pg/10 mg aorta
same,PD1 in aorta,[1]; [5],2.6 ± 0.7 pg/10 mg aorta
same,PD1n-3 DPA in aorta,[1]; [5],0.0 ± 0.0 pg/10 mg aorta
same,PGD2 in aorta,[1]; [5],14.9 ± 3.5 pg/10 mg aorta
same,PGE2 in aorta,[1]; [5],20.5 ± 4.5 pg/10 mg aorta
same,PGF2α in aorta,[1]; [5],10.0 ± 1.7 pg/10 mg aorta
same,RvD1 in aorta,[1]; [5],1.7 ± 0.9 pg/10 mg aorta
same,RvD1n-3 DPA in aorta,[1]; [5],0.1 ± 0.1 pg/10 mg aorta
same,RvD2 in aorta,[1]; [5],0.4 ± 0.4 pg/10 mg aorta
same,RvD2n-3 DPA in aorta,[1]; [5],0.1 ± 0.1 pg/10 mg aorta
same,RvD3 in aorta,[1]; [5],2.4 ± 0.6 pg/10 mg aorta
same,RvD5 in aorta,[1]; [5],0.4 ± 0.2 pg/10 mg aorta
same,RvD5n-3 DPA in aorta,[1]; [5],0.1 ± 0.1 pg/10 mg aorta
same,RvD6 in aorta,[1]; [5],1.5 ± 1.1 pg/10 mg aorta
same,RvE2 in aorta,[1]; [5],0.1 ± 0.1 pg/10 mg aorta
same,RvE3 in aorta,[1]; [5],0.7 ± 0.1 pg/10 mg aorta
same,RvEl in aorta,[1]; [5],1.8 ± 0.5 pg/10 mg aorta
same,TxB2 in aorta,[1]; [5],34.5 ± 4.1 pg/10 mg aorta
same,20-OH-LTB4 in aorta,[1]; [6],— (Below limits of detection)
same,MaR1n-3 DPA in aorta,[1]; [6],— (Below limits of detection)
same,RvD4 in aorta,[1]; [6],— (Below limits of detection)
same,RvT1 in aorta,[1]; [6],— (Below limits of detection)
same,RvT2 in aorta,[1]; [6],— (Below limits of detection)
same,RvT3 in aorta,[1]; [6],— (Below limits of detection)
same,RvT4 in aorta,[1]; [6],— (Below limits of detection)
same,expression of CD62P on peripheral blood platelets,[2],dose-dependently regulated
same,expression of CD63 on peripheral blood platelets,[2],dose-dependently regulated
